Reference: US8981179B2, “Transgenic non-human animal and uses thereof” (Sanofi, priority 2009, dated 2015)

Key:
[1] = test system: ADβR; experiment: Isolated CD4+ T cells CreLuc luciferase assay, ADβR agonist; type: cell-based, mouse; conditions: line 64 CD4+ T cells, anti CD3 24 hours, 10 μM, 4 hours
Procedure: The effects of different Gs agonists on luciferase levels in anti CD3 stimulated CD4+ T cells isolated from CreLuc mice was studied (FIG. 19). Whole splenocyte populations were prepared by mechanical disruption. CD4+ cells were then isolated by MACS Magnetic Separation with Positive Selection (Miltenyi Biotec cat#130-049-201). The cells, 1.5×10^5 per well, were then plated on 96 well white opaque plates and then stimulated with anti CD3 antibodies (BD Pharmingen cat#553058). After 24 hours, compounds were added for an additional 4 hours. Gs agonists for DP (B[…]), EP2 (EX00000173A) and ADβR (isoproterenol) were all used at 10 μM. Forskolin 5 μM, and rolipram 10 μM. BrightGlo (Promega, Madison, Wis., cat#E2610) was added and the assay was read on the TopCount. A 25-fold increase is observed in cells treated with forskolin and rolipram. […] The transgene was responsive to specific Gs agonists as well as general modulators of the cAMP pathway.

[2] = test system: ADRβ; experiment: Primary striatal neurons CreLuc luciferase assay, ADβR agonist; type: cell-based, mouse; conditions: striatal neurons line 187, day 4, 10 μM, 3 μM and 1 μM, 5 hours
Source text: Any cell culture derived from the CreLuc mice may be used to screen compounds for the ability to modulate GPCRs. Luciferase expression was induced in CreLuc striatal neurons by forskolin and rolipram, and Gs agonists for DRD1 and ADβR (FIG. 16). Striatum neurons were isolated from E14 embryos. The assays were run at day 4 in culture. […]. Thus, the transgene is functional in striatal as well cortical neurons (see FIG. 10).

[3] = test system: β-adrenergic receptor (ADβR); experiment: Whole splenocytes CreLuc luciferase assay, ADβR agonist; type: cell-based, mouse; conditions: line 64 whole splenocytes, 10 uM, 4 hours
Procedure: Whole splenocyte preps isolated from CreLuc mice (line 64) were used to show the effects of general cAMP inducers such as forskolin and rolipram, as well as Gs agonists on luciferase expression (FIG. 16). […] The cell suspension was then passed through a 70 um strainer into a 50 ml conical tube. […] Cells were diluted to 2×10^6/ml, and 100 ul of the cells were plated per well in a 96 well white opaque plate. […] At 24 hours, compounds were added to the plates for an additional 4 hours. The general inducers include rolipram (Sigma R6520), forskolin (Sigma F6886). […] The assay was run in triplicate. After 4 hours, 100 μl of BrightGlo (Promega, Madison, Wis., cat#E2610) and the assay was read on a TopCount luminometer. […] The preparation used in the experiment was a whole splenocyte preparation which is a mixed population of cells.

[4] = test system: ADβR; experiment: Cardiomyocytes CreLuc luciferase assay, ADβR agonist; type: cell-based, mouse; conditions: cardiomyocytes line 229, 10 μM isoproterenol
Procedure: The effects of forskolin and rolipram and isoproterenol on luciferase levels in cardiomyocytes was studied (FIG. 35). Cardiomyocytes were isolated from P3 pups from line 229. The cells were cultured in a 96 well plate. Compounds tested include 10 μM forskolin, 5 μM rolipram and 10 μM isoproterenol (ADβR agonist).

[5] = test system: ADβR; experiment: Mouse embryonic fibroblasts CreLuc luciferase assay, ADβR agonist; type: cell-based; conditions: six independent CreLuc lines, 10 μM isoproterenol
Procedure: The effects of forskolin, rolipram and isoproterenol on luciferase expression in mouse embryonic fibroblasts was investigated (FIG. 33). Mouse embryonic fibroblasts were cultured from E12 embryos from six independent CreLuc lines. Cells were plated at 20,000 cells per well. Compounds tested include 10 μM forskolin, 5 μM rolipram and 10 μM isoproterenol (ADβR agonist).

[6] = test system: CRE Luc reporter; experiment: In vivo bioluminescence imaging of CreLuc transgenic mouse after isoproterenol; conditions: bioimaging
Procedure: Administration of isoproterenol (right panel) increases spinal cord expression of the CRE Luc reporter compared to basal levels (left panel). The bioluminescent detection is represented visually on a white-light image of the animal as a pseudocolor representation in grayscale. […] For in vivo assays, the animals are dosed with luciferin only and then bioimaged on an IVIS bioimager to get baseline signal. The animals are then dosed with compound, and then bioimaged again at a set timepoint to examine the effects of the compound on the luciferase signal. Data can be analyzed as the fold induction of the induced signal versus the baseline signal. For the ex vivo assays, mice are dosed with either compound or vehicle, and then at a set timepoint, tissues are harvested and frozen. The tissues can then be homogenized and a luciferase assay such as Promega Luciferase assay system (Promega cat #E1500) run on the tissue extracts and the assay read on a luminometer such as the Topcount. Data can be analyzed as the relative light units per μg protein, comparing vehicle versus compound groups.

[7] = test system: cAMP pathway (CreLuc luciferase reporter) in brain slices; experiment: Whole brain slice luminescence, cAMP pathway activators; type: cell-based, mouse; conditions: line 187, 1 uM isoproterenol, 2 days
Procedure: In general, brains from CreLuc mice can be harvested and then either cut into slices on a microtome or various subregions can also be dissected out and then sliced on a microtome. The slices can then be incubated with different compounds such as forskolin and rolipram, or GPCR specific compounds. Luciferase levels can then be measured with an IVIS bioimager or a photomultiplier with a carousel to take quantitative timecourse measurements.
Thus, isoproterenol was used to increase the luciferase signal window which allows for screening GPCR specific compounds such as Gi agonists.
Compound activity can also be quantitated over time in a viable brain slice and luciferase expression can be visualized by a bioimager. […] Forskolin is a general activator of cAMP.

[8] = test system: β adrenergic receptors (ADβR); experiment: Primary cortical neurons CreLuc luciferase assay, Gs modulation via ADβR; type: cell-based, mouse; conditions: cortical neurons line 187, day 3, 10 μM, 4 hours
Source text: A general schematic of the workflow for the isolation and compound treatment of primary neuronal cells from the CreLuc model is depicted in FIG. 9. Cortices or other brain subregions are removed from embryos, usually embryonic (E) day 17 or 18, but also as early as E14. The individual neurons are then isolated and plated onto 96 well assay plates. Assays are run either in triplicate or quadruplicate. The assays are run from day 3 in culture up until day 7 or day 10 in culture depending on the expression levels of the target GPCR. Compounds are added to the plates then at a set timepoint, Bright Glo (Promega, Cat #E2610) is added to the plates and the assay is then run on a TopCount or other luminometer.
Primary cell cultures from the CreLuc mice may be used to screen compounds that are capable of modulating Gs coupled receptors. Neurons were isolated from the cortices of line 187 E18 embryos. […] The assay was run in triplicates on day three in culture. Forskolin was used at 5 μM, rolipram at 10 μM and the Gs agonists, ADβR-isoproterenol; and Dopamine-SKF82958 (MFG, Cat #C130) at 10 μM. At 4 hours, Bright Glo was added and the assays run on a Topcount. Forskolin is a general activator of cAMP. […] Forskoline and rolipram act synergistically to increase luciferase expression. […]

With `CC(C)NCC(O)c1ccc(O)c(O)c1` (centres unmarked) [isoproterenol] the increase of luciferase [1] was 5 fold, the luciferase expression [2] was “Significant increases” and the “luciferase versus DMSO only control (t-test)” value [3] was “Statistically significant increases”. The “increase in luciferase levels” value [4] was 2 fold, the “luciferase expression in mouse embryonic fibroblasts” value [5] was “Significant increases were also observed in three of the lines” and the “spinal cord expression of the CRE Luc reporter compared to basal levels” value [6] was “increases”. For the same compound, the “luciferase expression in hippocampal brain slices” value [7] was “induces luciferase expression levels” and the “increased luci levels vs DMSO control” value [8] was 11 fold.
